According to patent US20080090892A1, “AMORPHOUS ASENAPINE AND PROCESSES FOR PREPARING SAME” (N.V. Organon, priority 2006, published 2008):
Counter-ions that a name gives are not always drawn.

Test: Relative humidity (RH) study, visual assessment in double-vial relative humidity chambers
Assay type: physicochemical
Conditions: approximately 36 hours
Experimental: Relative Humidity (RH): An RH study was conducted to determine appropriate handling conditions for amorphous asenapine maleate. Samples of Batch A1 were placed in double-vial relative humidity chambers at 3.4% RH, 8.2% RH and 22.5% RH and were visually assessed after approximately 36 hours.

CN1C[C@@H]2c3ccccc3Oc3ccc(Cl)cc3[C@H]2C1 (relative stereo) [Batch A1, trans-5-chloro-2-methyl-2,3,3a,12b-tetrahydro-1H-dibenz[2,3:6,7]oxepino[4,5-c]pyrrole maleate]
physical state after storage at controlled relative humidity (visual assessment) (3.4% RH): remained solid
physical state after storage at controlled relative humidity (visual assessment) (8.2% RH): remained solid
physical state after storage at controlled relative humidity (visual assessment) (22.5% RH): deliquesced
